Source: patent US5330973A, “Lipopeptide derivatives” (Merck & Co., Inc., priority 1990, dated 1994)

Key:
[1] = tested on: C. parapsilosis; experiment: Minimum fungicidal concentration, microbroth dilution assay in YNBD; format: cell-based; conditions: C. parapsilosis MY 1010
Procedure: (§1) The compounds of the present invention are active against many fungi and particularly against Candida species. […] In carrying out the assay, Compound A-2a and A-3a were solubilized in 10% dimethyl sulfoxide (DMSO) and diluted to 2560 μg/ml. The compounds were then diluted to 256 μg/ml in YNBD. […] of the suspension was dispensed to the top row of a 96-well plate (each well containing 0.15 ml of YNDB) resulting in a drug concentration of 128 μg/ml. Two-fold dilutions were then made from the top row to obtain final drug concentrations ranging from 128 to 0.06 μg/ml. The yeast cultures, maintained on Sabouraud dextrose agar were transferred to YM broth (Difco) and incubated overnight at 35° C. with shaking (250 rpm). […] The microplates were incubated at 35° C. for 24 hours. The minimum inhibitory concentrations (MICs) were recorded as the lowest concentrations of drug showing no visible growth. After recording the MIC, the plates were shaken to resuspend the cells. Thereafter, […] samples from the wells in the 96-well microplate were transferred to a single well tray containing Sabouraud dextrose agar. The inoculated trays were incubated 24 hours at 28° C. and then read. […]

[2] = tested on: C. albicans; experiment: as above; format: cell-based
Procedure: as §1

[3] = tested on: C. tropicalis; experiment: as above; format: cell-based; conditions: C. tropicalis MY 1012
Procedure: as §1

[4] = tested on: Pneumocystis carinii; experiment: Pneumocystis carinii pneumonia in immunosuppressed rats, elimination of cysts; format: in vivo, Sprague-Dawley rats; conditions: I.P. twice daily for four days, lungs read by microscopic analysis of stained slides
Procedure: In a representative study, the effectiveness of Compound A-2a was determined. Sprague-Dawley rats (weighing approximately 250 grams) were immuno-suppressed with dexasone in the drinking water (2.0 mg/L) and maintained on a low protein diet for five weeds to induce the development of pneumocystis pneumonia from a latent infection. […] Six rats (weighing approximately 150 grams) were injected twice daily for four days intraperitoneally (I.P.) with Compound A-2a in 0.25 ml of vehicle (distilled water). A vehicle control was also carried out. All animals continued to receive dexasone in the drinking water and low protein diet during the treatment period. At the completion of the treatment, all animals were sacrificed, the lungs were removed and processed, and the extent of disease determined by microscopic analysis of stained slides.
In a similar experiment, the animals were sacrificed, the lungs removed and processed, and the extent of disease determined by microscopic analysis of stained slides.

| Substance | Minimum Fungicidal Concentration [1] [µg/mL] | Minimum Fungicidal Concentration ([2]; C. albicans MY 1028) [µg/mL] | Minimum Fungicidal Concentration ([2]; C. albicans MY 1055) [µg/mL] | Minimum Fungicidal Concentration ([2]; C. albicans MY 1208) [µg/mL] | Minimum Fungicidal Concentration [3] [µg/mL] | ED90 for eliminating P. carinii cysts [4] |
| --- | --- | --- | --- | --- | --- | --- |
| 1-[N2-(10,12-dimethyl-1-oxotetradecyl)-ornithine]-4-[3,4-dihydroxy-4'-O-pho sphoryl-homotyrosine]-5-[3-hydroxyglutamine] echinocandin B [Compound A-3a] | > 128 | 4 | 2 | 4 | 1 | approximately 2.5 mg/kg |
| 1-[4-hydroxy-N2-(10,12-dimethyl-1-oxotetradecyl)-ornithine]-4-[3-hydroxy-4' -O-phosphoryl-homotyrosine]-5-[3-hydroxyglutamine]echinocandin B [Compound A-2a] | 16 | 1 | 1 | 1 | 0.5 | approximately 2 mg/kg |
